These results are taken from US8258309B2, “Azapeptide derivatives” (priority 2007, dated 2012).

Structures are written as SMILES. Read-outs that look alike come from different tables or passages of the source.

Data set [1] can be described thus: Microsomal assay: stability in human liver microsomes. The following applies: for half-life at 1 μM: liver microsomes. Type of data set: in vitro ADME. The essentials:
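Test compound at 1.0 μM incubated at 37° C with pooled human liver microsomes (0.5 mg/mL), 2 mM NADPH, 3 mM MgCl2 in 100 mM potassium phosphate pH 7.4. Samples taken at 0–30 min and parent remaining measured by LC-MS/MS.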

The nature of data set [2]: Rat pharmacokinetics, intravenous and oral co-dosing of Compound 122 and atazanavir. Type of data set: in vivo. Conditions: male, Sprague-Dawley, plasma, rats, 1 mg/kg of each. As for the experimental part: Rat Pharmacokinetics. […] Then the combo dose was prepared by mixing both by 1:1 to yield a final concentrations at 1 mg/mL for each compound (pH=5-6) for intravenous and oral administration. Male Sprague-Dawley rats (body weight: 170 g to 235 g) were used in this study. […] Blood samples (300 μL) were collected via the retro-orbital vein at pre-dose and 0.083, 0.25, 0.5, 1, 2, 4, 6, 8, 10, 12 and 24 hours post-dose. Blood samples were placed into heparinized eppendorf tubes (evaporated) and then centrifuged at 8000 rpm for 6 minutes. 100 μL aliquots of plasma were transferred to clean Eppendorf tubes and stored with the dose formulation at -20° C. until bioanalysis. For bioanalysis, plasma was thawed and added to it was 20 μL methanol and 500 μL of a 50 ng/ml internal standard solution (quetiapine in methanol). The sample was vortexed, centrifuged at 15,000 rpm for 5 minutes and the supernatant transferred to glass autosampler vials. Analyses of plasma samples were performed using a high performance liquid chromatography/mass spectrometry (HPLC/MS/MS) method. The LC system comprised an Agilent (Agilent Technologies Inc, USA) liquid chromatograph equipped with an isocratic pump (1100 series), an autosampler (1100 series) and a […]). Mass spectrometric analysis was performed using an API3000 (triple-quadrupole) instrument from AB Inc (Canada) with an ESI interface. The data acquisition and control system were created using Analyst 1.4 software from ABI Inc. Following intravenous co-administration of Compound 122 and atazanavir, atazanavir disappeared more rapidly from the blood.

A further data set relates to HIV-1RF. Kind of data set: HIV anti-viral activity in CEM-SS cells infected with HIV-1 (XTT). The class given is cell-based. On the procedure:
The HIV antiviral activity of compound of the present invention was tested in CEM-SS cells infected with HIV-1. CEM-SS cells were passaged in T-75 flasks in RPMI 1640 medium supplemented with 10% heat inactivated fetal bovine serum, 2 mmol/L L-glutamine, 100 U/mL penicillin and 100 flg/mL streptomycin prior to use in the antiviral assay. On the day preceding the assay, the cells were split 1:2 to assure they were in an exponential growth phase at the time of infection. Total cell and viability quantification was performed using a hemocytometer and Trypan Blue dye exclusion. Cell viability was greater than 95% for the cells to be utilized in the assay. The cells were resuspended at 5×10^4 cells per mL in tissue culture medium and added to the drug-containing microtiter plates in a volume of 50 μL.
The virus used for the assay was the lymphocyte-tropic virus strain HIV-IRF. The virus was obtained from the NIH AIDS Research and Reference Reagent Program and stock virus pools were produced in CEM-SS cells. A pre-titered aliquot of virus was removed from the freezer (−80° C.) and allowed to thaw slowly to room temperature in a biological safety cabinet. Virus was resuspended and diluted into tissue culture medium such that the amount of virus added to each well in a volume of 50 μL was the amount determined to yield 85 to 95% cell killing at 6 days post-infection.
Each plate contains cell control wells (cells only), virus control wells (cells plus virus), compound toxicity wells (cells plus compound only), compound colorimetric control wells (compound only) as well as experimental wells (compound plus cells plus virus). Samples were tested in triplicate with eleven half-log dilutions per compound starting at 0.1 μM of compound. Compounds 104, 120 and 122 were tested, as was atazanavir and AZT. […]
Following incubation at 37° C. in a 5% CO2 incubator, the test plates were stained with the tetrazolium dye XTT (2,3-bis(2-methoxy-4-nitro-5sulfophenyl)-5-[(phenylamino)carbonyl]-2H-tetrazolium hydroxide). XTT-tetrazolium was metabolized by the mitochondrial enzymes of metabolically active cells to a soluble formazan product, allowing rapid quantitative analysis of the inhibition of HIV induced cell killing by anti-HIV test substances. XTT solution was prepared daily as a stock of 1 mg/mL in RPMI 1640. Phenazine methosulfate (PMS) solution was prepared at 0.15 mg/mL in PBS and stored in the dark at −20° C. XTT/PMS stock was prepared immediately before use by adding 40 μL of PMS per mL of XTT solution. Fifty microliters of XTT/PMS was added to each well of the plate and the plate was reincubated for 4 hours at 37° C. Plates were sealed with adhesive plate sealers and shaken gently or inverted several times to mix the soluble formazan product and the plate was read spectrophotometrically at 450/650 nm with a Molecular Devices Vmax plate reader.
Raw data was collected from the Softmax Pro 4.6 software and imported into a Microsoft Excel 2003 spreadsheet for analysis by linear curve fit calculations.
For orientation: Tetrazolium dyes change colour on reduction, which living cells bring about.

Where [3] appears, read: human, pH 7.4, human liver microsomes 0.5 mg/mL, 1.0 μM test compound, first run (Table 2), read-out: T1/2 ± SD.
Setting [4] is: human, pH 7.4, human liver microsomes, repeated assay (Table 3), read-out: t1/2 (min) Avg ± SD (n = 3).
Setting [5] is: Human immunodeficiency virus 1, CEM-SS, +0.5 mg/mL AAGP.
[6] abbreviates: Human immunodeficiency virus 1, CEM-SS, +10 mg/mL HAS.
Where [7] appears, read: Human immunodeficiency virus 1, CEM-SS, +AAGP + HSA.
Setting [8] is: Human immunodeficiency virus 1, CEM-SS, No Serum Protein Added (cell culture medium).

Turning to `COC(=O)N[C@H](C(=O)N[C@@H](Cc1ccccc1)[C@@H](O)CN(Cc1ccc(-c2ccccn2)cc1)NC(=O)[C@@H](NC(=O)OC)C(C)(C)C)C(C)(C)C` [Atazanavir, atazanavir, reference compound], the half-life at 1 μM in data set [1] (setting [3]) worked out at 18.6 ± 2.99 min; in data set [1] (setting [4]) it was 18.8 ± 0.6 min. Also, the figures for the AUC in data set [2] (intravenous co-dosing) and in data set [2] (oral co-dosing) were 475 ± 15.9 ng·h/mL and 86 ± 51.2 ng·h/mL, respectively. Further, the half-life in data set [2] (intravenous co-dosing) is 13.8 ± 0.6 min; in data set [2] (oral co-dosing), 19.2 ± 3.6 min. In data set [2] (oral co-dosing), the Cmax (usually the maximum level reached in the sampled fluid or tissue) was found to be 109 ± 67.2 ng/mL. The EC50 (usually the concentration needed to bring the measured effect to its halfway point) was 4 nM in the data set with HIV-1RF (setting [5]), 4 nM in the data set with HIV-1RF (setting [6]), 8 nM in the data set with HIV-1RF (setting [7]) and 1 nM in the data set with HIV-1RF (setting [8]).
In the case of `[2H]C([2H])([2H])OC(=O)N[C@H](C(=O)N[C@@H](Cc1ccccc1)[C@@H](O)CN(Cc1ccc(-c2ccccn2)cc1)NC(=O)[C@@H](NC(=O)OC([2H])([2H])[2H])C(C([2H])([2H])[2H])(C([2H])([2H])[2H])C([2H])([2H])[2H])C(C([2H])([2H])[2H])(C([2H])([2H])[2H])C([2H])([2H])[2H]` [Compound 122, 1,14-Di(methyl-d3)(3S,8S,9S,12S)-3,12-bis[(1,1-dimethylethyl)-d9]-8-hydroxy-4,11-dioxo-9-(phenylmethyl)-6-[[4-(2-pyridinyl)phenyl]methyl]-2,5,6,10,13-pentaazatetradecanedioate], in data set [1] (human liver microsomes, first run), the “half-life as compared to atazanavir” value is on record as “increased half-life”. Further, the “increase in half-life as compared to atazanavir” value in data set [1] (human, 1 μM, pH 7.4) is listed as approximately 67%. In addition, the half-life at 1 μM was found to be 35.4 ± 1.68 min in data set [1] (setting [3]) and 28.3 ± 0.3 min in data set [1] (setting [4]). For the same compound, the results for the area under the curve (AUC) in data set [2] (intravenous co-dosing) and in data set [2] (oral co-dosing) were 503 ± 25.1 ng·h/mL and 156 ± 70.6 ng·h/mL, respectively. The half-life in data set [2] (intravenous co-dosing) was 15 ± 1.2 min; in data set [2] (oral co-dosing), 27.6 ± 9.6 min. In data set [2] (oral co-dosing), the Cmax stood at 183 ± 113 ng/mL. The “fold less potent in the presence of HSA than in cell culture medium alone” value with HIV-1RF (10 mg/mL HSA versus cell culture medium) was “two- to greater than three-fold less potent”. For the same compound, the EC50 in the data set with HIV-1RF (+10 mg/mL HAS) is 0.8 nM; in the data set on HIV-1RF (setting [5]), 2 nM; in the data set on HIV-1RF (setting [6]), 0.9 nM; in the data set on HIV-1RF (setting [7]) it was 6 nM; in the data set on HIV-1RF (setting [8]) it was less than 0.4 nM; in the data set with HIV-1RF (No Serum Protein Added (cell culture medium)), 0.4 nM.
